# Columns and labels:
# Assay type in all cases: cell-based
# AKT = assay: Western blot of phosphorylated Akt in primary mouse hepatocytes; conditions: 100 nM insulin 6 hours, or Compounds CDE both doses 24 hours + 6 hours
# Experimental: (§1) The overnight-acclimated hepatocytes were washed twice with PBS (to remove any residual FBS and other additives in the TRL hepatocyte maintenance medium, pretreated with control (water) or selenium Compounds CDE (150 or 300 ppb of each selenium compound) in DMEM/F12 media supplemented with 10% fetal bovine serum (FBS) for 24 hr. These cells were then washed twice with PBS and incubated with the same dose of selenium Compounds CDE (150 or 300 ppb) in the presence or absence of insulin (10 or 100 nM, Sigma), 0.1 mM 8-CPT (Sigma) or 0.5 μM Dex (Sigma) in serum-free and glucose-free DMEM media (Invitrogen) supplemented with 20 mM lactose (Sigma) and 2 mM pyruvate (Sigma) and 15 mM HEPES (Sigma) for another 6 hours. […]
# (§2) After the above described treatments, primary mouse hepatocytes were rinsed with ice-cold PBS and lysed in the ice-cold RIPA buffer containing complete proteinase and phosphatase inhibitors (Thermo-Fisher Scientific, Waltham, Mass.) on ice for 30 min Cell lysates were collected using a cell scraper and transfer pipette and then centrifuged at 12000×g for 30 min at 4° C. to remove the DNA pellet and obtain the protein extract. Protein levels in the supernatant of these cell lysates were determined using the Pierce Micro-BCA protein assay kit (Thermo Scientific-Piece Biotechnology, Rockford, Ill.) according to the manufacturer's protocol. […]
# Foxo3 = assay: Western blot of pFoxo3T32 in primary mouse hepatocytes; conditions: 100 nM insulin 6 hours, or Compounds CDE both doses 24 hours + 6 hours
# Experimental: as §1, §2
# Foxo4 = assay: Western blot of pFoxo4T28 in primary mouse hepatocytes; conditions: 100 nM insulin, 6 hours
# Experimental: as §1, §2
substance,measurement,setting,value
"insulin: insulin (10 or 100 nM, Sigma) used as comparator and cotreatment",pAktS473 protein level (in words),AKT,significant increase
same,pFoxo3T32 protein level (in words),Foxo3,significant increase
same,pFoxo4T28 levels,Foxo4,barely detectable

# Reference: patent US9642874B2, “Compositions of selenoorganic compounds and methods of use thereof” (Alltech, Inc., priority 2014, dated 2017)
